Experimental findings from patent US6680178B2, “Profiling of protease specificity using combinatorial fluorogenic substrate libraries” (The Regents of the University of California, priority 2000, dated 2004) are described below.

Non-standard residues stand in square brackets, D forms with d. Residues, ends and D or L forms follow the SMILES beside them. *: point of attachment. ACC = NC(=O)Cc1cc(=O)oc2cc(N*)ccc12; AMC = Cc1cc(=O)oc2cc(N*)ccc12; Nle = CCCC[C@H](N)C(=O)O; CH2Cl = ClC*

A short description of data set [1]: Fluorescence properties of free and peptidyl-derivatized ACC and AMC. It counts as physicochemical. The conditions noted are these: for λmax, em / λmax, ex: 25° C.; for RFU/nM1 / RFU/nM2: λex = 380 nm; for RFU/nM1: λem = 450 nm; for RFU/nM2: λem = 460 nm. As to the method: The fluorescence of free ACC and peptidyl-derivatized ACC was detected on a Spex fluorometer thermostated to 25° C. Excitation wavelengths of 300-410 nm, 5 nm intervals, were used with emission wavelengths of 410-500 nm, 5 nm intervals, to determine optimal excitation and emission parameters.

For data set [2], the target named is T1, thrombin (Homo sapiens, UniProt P00734).
T1 construct: Human thrombin, plasmin, and factor Xa were used as received; purchased Haematologic Technologies Inc. (Essex Jct., Vt.)
Briefly: Single substrate kinetic assay with thrombin (ACC vs AMC leaving group). It counts as biochemical. The conditions noted are these: thrombin 5-20 nM. As to the method: (§1) Thrombin concentration ranged from 5-20 nM. The final concentration of substrate ranged from 0.005-2 mM, the concentration of DMSO in the assay was less than 5%. Hydrolysis of AMC and ACC substrates was monitored fluorometrically with an excitation wavelength of 380 nm and emission wavelength of 460 nm on a Fluoromax-2 spectrofluorometer. Cruzain (10 nM) was incubated with 600 μM of the Ac-Leu-Thr-Phe-Lys-ACC substrate. Aliquots were removed at various time points and applied to a C-18 reverse-phase HPLC column with a 10-40% gradient of 95:4.9:0.1 Acetonitrile:H2O:TFA. MALDI (PE Biosystems Voyager) mass spectrometry data was collected on the HPLC fractions.

The target in data set [3] is T2, βI Tryptase (Homo sapiens, UniProt Q15661).
T2 construct: Secreted mature βI and βII tryptases were purified to homogeneity; made in house; host or cells: Pichia pastoris GS115
T2 sequence (Q15661 31-275): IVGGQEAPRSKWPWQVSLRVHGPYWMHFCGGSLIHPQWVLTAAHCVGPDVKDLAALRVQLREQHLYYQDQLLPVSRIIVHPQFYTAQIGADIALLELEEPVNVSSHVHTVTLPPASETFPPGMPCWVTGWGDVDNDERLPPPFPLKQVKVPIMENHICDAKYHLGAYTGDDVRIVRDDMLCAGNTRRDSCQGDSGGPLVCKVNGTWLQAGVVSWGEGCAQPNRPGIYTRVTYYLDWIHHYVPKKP
Put plainly: Single substrate kinetic analysis, βI tryptase. The format is biochemical. The following applies: for Km: βI Tryptase, 30° C., pH 7.5. As to the method:
(§2) Tryptase activity was monitored at 30° C. in assay buffer containing 100 mM HEPES pH 7.5 and 10% glycerol. Substrate stock solutions were prepared in DMSO. The final concentration of substrate ranged from 0.005-2 mM. The concentration of DMSO in the assay was less than 5%. The tryptase concentration was 5 nM. Hydrolysis of ACC substrates was monitored fluorometrically with an excitation wavelength of 380 nm and emission wavelength of 450 nm on a Fluoromax-2 spectrofluorimeter (JY Horiba).

The target of data set [4] is T3, βII Tryptase (Homo sapiens, UniProt Q15661, N132K).
T3 construct: Secreted mature βI and βII tryptases were purified to homogeneity; made in house; host or cells: Pichia pastoris GS115
T3 sequence (Q15661 31-275 N132K): as the sequence (Q15661 31-275) above, with N102K counted along it
Briefly: Single substrate kinetic analysis, βII tryptase. The format is biochemical. The conditions noted are these: for Km: βII Tryptase, 30° C., pH 7.5. As to the method:
as §2

In data set [5] the target is T4, cruzain (Trypanosoma cruzi, UniProt P25779).
T4 construct: made in house
T4 sequence (P25779 123-337): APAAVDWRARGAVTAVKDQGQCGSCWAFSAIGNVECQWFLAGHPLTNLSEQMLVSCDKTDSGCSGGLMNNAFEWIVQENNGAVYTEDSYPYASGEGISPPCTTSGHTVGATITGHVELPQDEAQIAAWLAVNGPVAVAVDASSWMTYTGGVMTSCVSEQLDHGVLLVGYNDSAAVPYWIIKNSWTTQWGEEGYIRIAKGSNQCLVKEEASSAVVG
Put plainly: Incubation of single substrate with cruzain and analysis of cleavage products (HPLC, MALDI). It counts as biochemical. The following applies: cruzain 10 nM, 600 μM substrate; data not shown. As to the method:
as §1

For data set [6], the system named is Factor Xa. Briefly: Protease inhibition by Ac-PRNK-cmk, residual activity. It counts as biochemical, human. The conditions noted are these: 100 μM Ac-PRNK-cmk, 5 minutes incubation, enzyme 50 nM. As to the method: (§3) Progress curves were obtained for tryptase (1 nM) inactivation by multiple concentrations of Ac-PRNK-cmk (50 nM to 10 μM). Activity was monitored at 30° C. in activity buffer with 100 μM Ac-PRNK-ACC substrate. The rate constant for loss of enzyme activity, kobs, was determined from a non-linear regression of the progress curve data. kobs varied linearly with inhibitor concentration. Therefore, kass, the rate constant for the inactivation of enzyme with inhibitor, was determined by linear regression analysis (Bieth, J. G. Methods in Enzymology 248: 59-84 (1995)). Several P1-basic-preferring proteases were monitored for inhibition by Ac-PRNK-cmk as follows: tryptase bI (50 nM), tryptase bII (50 nM), factor Xa (50 nM), tPA (50 nM), uPA (50 nM), thrombin (1 nM), and plasmin (5 nM) were incubated for 5 minutes with 0 μM, 10 μM, 100 μM Ac-PRNK-cmk. After incubation, residual activity was monitored as follows: Ac-PRNK-ACC was added to a final concentration of 5 μM to the samples containing tryptase βI and βII; Ac-GTAR-ACC (5 μM) was added to the factor Xa and tPA samples; Ac-QFAR-ACC (5 μM) was added to the uPA samples; Ac-nTPR-ACC (5 μM) was added to the thrombin samples; and Ac-KQWK-ACC (5 μM) was added to plasmin samples.
(§4) Progress curves were obtained for tryptase (1 nM) inactivation by multiple concentrations of Ac-PRNK-cmk (50 nM to 10 μM). […]

The target in data set [7] is T5, Tryptase βII (Homo sapiens, UniProt Q15661, N132K).
T5 construct: Secreted mature βI and βII tryptases were purified to homogeneity; made in house; host or cells: Pichia pastoris GS115
T5 sequence (Q15661 31-275 N132K): as the sequence (Q15661 31-275) above, with N102K counted along it
The description is as above. It counts as biochemical. The following applies: 10 μM Ac-PRNK-cmk, 5 minutes incubation, enzyme 50 nM. As to the method: as §3
as §3, with “(Bieth” for “(Bieth, J. G. Methods in Enzymology 248: 59-84”, “bIl” for “bII”

Data set [8] has as its target T1, thrombin. The data set is described as above. The format is biochemical. The conditions noted are these: 100 μM Ac-PRNK-cmk, 5 minutes incubation, enzyme 1 nM. As to the method:
as §3
as §3, with “(Bieth” for “(Bieth, J. G. Methods in Enzymology 248: 59-84”, “bIl” for “bII”

For data set [9], the target named is T6, Plasmin (Homo sapiens, UniProt P00747).
T6 construct: Human thrombin, plasmin, and factor Xa were used as received; purchased Haematologic Technologies Inc. (Essex Jct., Vt.)
T6 sequence (P00747 581-810 limits assumed): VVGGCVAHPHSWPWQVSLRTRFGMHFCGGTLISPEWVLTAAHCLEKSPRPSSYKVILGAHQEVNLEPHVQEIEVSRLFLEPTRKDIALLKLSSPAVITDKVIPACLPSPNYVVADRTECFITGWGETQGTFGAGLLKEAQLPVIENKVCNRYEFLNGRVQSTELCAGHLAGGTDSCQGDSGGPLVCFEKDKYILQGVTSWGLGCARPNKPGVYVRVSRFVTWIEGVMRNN
T6 sequence (P00747 97-580 partner limits assumed): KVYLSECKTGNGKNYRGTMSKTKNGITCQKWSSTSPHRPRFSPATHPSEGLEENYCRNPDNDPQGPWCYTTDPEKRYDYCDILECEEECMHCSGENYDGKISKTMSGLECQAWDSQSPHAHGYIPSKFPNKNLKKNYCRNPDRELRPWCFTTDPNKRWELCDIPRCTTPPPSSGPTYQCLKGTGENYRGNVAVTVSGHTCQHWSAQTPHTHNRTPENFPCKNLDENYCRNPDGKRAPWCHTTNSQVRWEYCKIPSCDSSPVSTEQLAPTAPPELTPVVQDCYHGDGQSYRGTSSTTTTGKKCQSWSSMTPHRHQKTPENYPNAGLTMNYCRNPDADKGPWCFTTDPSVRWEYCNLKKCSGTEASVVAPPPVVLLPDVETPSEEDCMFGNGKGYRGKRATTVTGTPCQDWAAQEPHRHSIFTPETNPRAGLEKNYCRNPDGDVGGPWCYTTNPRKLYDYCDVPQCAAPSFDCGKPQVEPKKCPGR
Described as above. The format is biochemical. The following applies: 100 μM Ac-PRNK-cmk, 5 minutes incubation, enzyme 5 nM. As to the method: as §3
as §3, with “(Bieth” for “(Bieth, J. G. Methods in Enzymology 248: 59-84”, “bIl” for “bII”

The target of data set [10] is T7, tPA (Homo sapiens, UniProt P00750).
T7 construct: purchased American Diagnostica (Greenwich, Conn.)
T7 sequence (P00750 36-562): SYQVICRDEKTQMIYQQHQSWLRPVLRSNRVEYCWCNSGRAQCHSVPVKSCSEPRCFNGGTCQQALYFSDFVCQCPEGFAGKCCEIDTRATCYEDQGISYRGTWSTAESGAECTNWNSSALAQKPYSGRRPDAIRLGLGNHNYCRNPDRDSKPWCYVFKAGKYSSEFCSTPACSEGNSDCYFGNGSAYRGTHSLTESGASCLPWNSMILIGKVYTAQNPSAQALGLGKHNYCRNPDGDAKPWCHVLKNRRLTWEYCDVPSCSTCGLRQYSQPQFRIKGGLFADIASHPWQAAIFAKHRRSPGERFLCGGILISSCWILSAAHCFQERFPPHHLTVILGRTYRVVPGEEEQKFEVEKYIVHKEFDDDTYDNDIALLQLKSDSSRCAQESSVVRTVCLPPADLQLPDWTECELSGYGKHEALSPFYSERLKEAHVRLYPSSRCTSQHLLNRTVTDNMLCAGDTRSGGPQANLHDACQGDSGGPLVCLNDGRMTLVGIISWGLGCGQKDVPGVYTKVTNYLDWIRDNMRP
The description is as above. The format is biochemical. The conditions noted are these: 100 μM Ac-PRNK-cmk, 5 minutes incubation, enzyme 50 nM. As to the method:
as §3
as §3, with “(Bieth” for “(Bieth, J. G. Methods in Enzymology 248: 59-84”, “bIl” for “bII”

Data set [11] has as its target T8, Tryptase βI (Homo sapiens, UniProt Q15661).
T8 construct: Secreted mature βI and βII tryptases were purified to homogeneity; made in house; host or cells: Pichia pastoris GS115
The description is as above. It counts as biochemical. The following applies: 10 μM Ac-PRNK-cmk, 5 minutes incubation, enzyme 50 nM. As to the method:
as §3
as §3, with “(Bieth” for “(Bieth, J. G. Methods in Enzymology 248: 59-84”, “bIl” for “bII”

For data set [12], the target named is T9, uPA (Homo sapiens, UniProt P00749).
T9 construct: purchased American Diagnostica (Greenwich, Conn.) or Calbiochem (San Diego, Calif.)
Described as above. The format is biochemical. The conditions noted are these: 100 μM Ac-PRNK-cmk, 5 minutes incubation, enzyme 50 nM. As to the method: as §3
as §3, with “(Bieth” for “(Bieth, J. G. Methods in Enzymology 248: 59-84”, “bIl” for “bII”

The target of data set [13] is T3, βII Tryptase. Put plainly: Irreversible inhibitor kinetic analysis (progress curves), βII tryptase. It counts as biochemical. The following applies: tryptase 1 nM, 30° C., 100 μM Ac-PRNK-ACC substrate. As to the method: as §3, §4
In data set [14] the target is T2, βI Tryptase. Briefly: Irreversible inhibitor kinetic analysis (progress curves), βI tryptase. It counts as biochemical. The following applies: tryptase 1 nM, 30° C., 100 μM Ac-PRNK-ACC substrate. As to the method:
as §3, §4

Setting [15] is: range stated over tryptase βI and βII.

T8 sequence (Q15661 31-275): as the sequence (Q15661 31-275) above

For the compound 7-Nle-Thr-Pro-Lys-ACC, in data set [1], the “λmax, em” value was 400 nm; the “λmax, ex” value is on record as 325 nm; the RFU/nM1 came out at 6.4 RFU/nM; the RFU/nM2 is 4.6 RFU/nM.
Consider “7-Nle-Thr-Pro-Lys-AMC [reference compound]”, for which, in data set [1], the “λmax, em” value was 390 nm; the “λmax, ex” value was 330 nm; the RFU/nM1 stood at 3.3 RFU/nM; the RFU/nM2 turned out to be 2.2 RFU/nM.
On to `NC(=O)Cc1cc(=O)oc2cc(N)ccc12` [7-Amino-4-Carbamoylmethyl-coumarin (ACC), 7-amino-4-carbamoylmethyl-coumarin], for which, in data set [1], the “λmax, em” value turned out to be 450 nm; the “λmax, ex” value is on record as 350 nm; the RFU/nM1 is listed as 5750 RFU/nM; the RFU/nM2 was 4390 RFU/nM. The “fluorescence yield relative to the AMC coumarin” value in data set [1] (excitation 380 nm, emission 460 nm) was “approximately 2.8 fold”.
In general, Km refers to the substrate concentration at which the rate is half of its maximum. Turning to `CC(=O)N[C@@H](CC(C)C)C(=O)NCC(=O)N1CCC[C@H]1C(=O)N[C@@H](CCCCN)C(=O)Nc1ccc2c(CC(N)=O)cc(=O)oc2c1` [Ac-Leu-Gly-Pro-Lys--ACC] (Ac-LGPK-{ACC}), in data set [2], the Km was 195 ± 30 µM.
For orientation: kcat means the maximal rate divided by the concentration of active sites. For `CC(=O)N[C@@H](CC(C)C)C(=O)NCC(=O)N1CCC[C@H]1C(=O)N[C@@H](CCCCN)C(=O)Nc1ccc2c(C)cc(=O)oc2c1` [Ac-Leu-Gly-Pro-Lys-AMC] (Ac-LGPK-{AMC}), in data set [2], the Km was found to be 160 ± 25 µM and the kcat stood at 2.3 ± 0.2 s⁻¹.
`CCCC[C@H](NC(C)=O)C(=O)N[C@H](C(=O)N1CCC[C@H]1C(=O)N[C@@H](CCCCN)C(=O)Nc1ccc2c(CC(N)=O)cc(=O)oc2c1)[C@@H](C)O` [Ac-Nle Thr-Pro-Lys--ACC] (Ac-[Nle]TPK-{ACC}): the Km in data set [2] stood at 125 ± 13 µM.
With `CCCC[C@H](NC(C)=O)C(=O)N[C@H](C(=O)N1CCC[C@H]1C(=O)N[C@@H](CCCCN)C(=O)Nc1ccc2c(C)cc(=O)oc2c1)[C@@H](C)O` [Ac-Nle-Thr-Pro-Lys-AMC] (Ac-[Nle]TPK-{AMC}), in data set [2], the Km amounted to 115 ± 10 µM and the kcat worked out at 31.0 ± 0.9 s⁻¹.
Consider `CC(=O)N1CCC[C@H]1C(=O)N[C@@H](C)C(=O)N[C@@H](CC(N)=O)C(=O)N[C@@H](CCCCN)C(=O)Nc1ccc2c(CC(N)=O)cc(=O)oc2c1` [Ac-PANK-ACC] (Ac-PANK-{ACC}), for which the Km is 111 ± 9.8 µM in [3] and 133 ± 15.6 µM in [4].
Taken in the same sequence, the figures for `CC(=O)N1CCC[C@H]1C(=O)N[C@@H](CCCNC(=N)N)C(=O)N[C@@H](CC(N)=O)C(=O)N[C@@H](CCCCN)C(=O)Nc1ccc2c(CC(N)=O)cc(=O)oc2c1` [Ac-PRNK-ACC] (Ac-PRNK-{ACC}) were 8.9 ± 0.9 µM and 14.5 ± 1.9 µM.
Turning to `CC(=O)N1CCC[C@H]1C(=O)N[C@@H](CCCNC(=N)N)C(=O)N[C@@H](CC(N)=O)C(=O)N[C@@H](CCCNC(=N)N)C(=O)Nc1ccc2c(CC(N)=O)cc(=O)oc2c1` [Ac-PRNR-ACC] (Ac-PRNR-{ACC}), the “activity relative to Ac-PRNK-ACC substrate” value in [3] (setting [15]) and in data set [4] (setting [15]) was 70-90% in each case. Also, the Km was 16.5 ± 2.7 µM in data set [3] and 18.6 ± 2.6 µM in [4].
`CC(=O)N1CCC[C@H]1C(=O)N[C@@H](CCCNC(=N)N)C(=O)N[C@H](C(=O)N[C@@H](CCCCN)C(=O)Nc1ccc2c(CC(N)=O)cc(=O)oc2c1)[C@@H](C)O` [Ac-PRTK-ACC] (Ac-PRTK-{ACC}): the Km in data set [3] is 14.7 ± 1.4 µM; in [4], 23.4 ± 2.3 µM.
For “Ac-Leu-Thr-Phe-Lys-ACC (Ac-LTFK-{ACC}; SMILES CC(=O)N[C@@H](CC(C)C)C(=O)N[C@H](C(=O)N[C@@H](Cc1ccccc1)C(=O)N[C@@H](CCCCN)C(=O)Nc1ccc2c(CC(N)=O)cc(=O)oc2c1)[C@@H](C)O)”, in data set [5], the cleavage products observed result is “cleavage between Thr-Phe”.
With Ac-PRNK-CH2Cl, the “Percent Inhibition” value in data set [6] turned out to be 0; in [7], 95; in [8], 0; in data set [9] it was 63; in data set [10] it was 0; in [11] it was 95. Also, the “Percent Inhibition” value in [12] is 34. Also, the “association rate constant, kass” value in data set [13] and in data set [14] was 5000 ± 200 M⁻¹ s⁻¹ throughout.
